In patent publication US5643884A, “Lupane triterpenoid derivatives” (Glycomed Incorporated, priority 1993, dated 1997):
Values after ≈ are worked out from the molar mass of the structure shown.

Key:
[1] = system: P-388 lymphocytic leukemia cells; conditions: Choi et al, Planta Medica 1988; cited from earlier work
[2] = system: ornithine decarboxylase; conditions: Yasukawa et al. 1991; cited from earlier work
[3] = system: P-selectin; assay: inhibition of P-selectin binding to HL-60 cells; format: cell-based, human HL-60 cells; conditions: read-out: IC50, P-selectin binding to HL-60 cells; P-selectin 200 ng/ml; 4° C., 1 hour
Method: Certain of the invention compounds were tested for their capacity to inhibit P-selectin binding to HL-60 cells, and to a chemical known to bind to P-selectin, 2,3 sLex. The following materials and procedures were used.
P-Selectin Detection Solutions. Goat F(ab')2 anti-human IgG (Fc spec.)-biotin and streptavidin-AP were diluted 1:1000 in 1% BSA-TBS with 1 mM Ca^++. An Elisa assay was utilized to measure P-selectin binding to 2,3 sLex, and P-selectin was added at 300 ng/ml. An Elisa assay was also used to assay for the capacity of the invention compounds to inhibit HL-60 cell binding to P-selectin. HL-60 cells were used, and P-selectin was added at 200 ng/ml.
2,3 sLex was coated at 30 pmoles/well to Probind microtiter plates for Elisa. The glycolipid was added at 50 μl/well in 50% MeOH and allowed to evaporate overnight. Elisa plates and HL-60 assay plates were blocked with 5% BSA-TBS Ca^++ for more than an hour at room temperature. The plates were washed with TBS without Ca^++.
HL-60 cells were harvested by centrifugation, washed with TBS no Ca^++, counted, and the density adjusted to 2×10^6 /ml in 1% BSA-TBS Ca^++.
Briefly, the assays were conducted as follows. […] DMF solutions were added directly to 1% BSA/TBS-Ca for dilutions through 0.5 mM. Lower concentrations were made in serial two-fold dilutions in BSA-TBS. […]

[4] = system: arachidonic acid (AA) induced ear swelling; assay: arachidonic acid (AA), murine skin inflammation model (ear swelling); format: in vivo; conditions: topical, 1 mg, 90 minutes
Method: Arachidonic acid is known to induce an inflammatory response and the compounds were tested for their capacity to inhibit the response.
Briefly, the compounds at an appropriate concentration are dissolved in a suitable solvent, and applied to a rodent ear immediately following application of arachidonic acid (AA). A control of AA alone is run. About 90 minutes later a 6 mm disk of each ear is removed and weighed.
For comparison, betulinic acid was also tested. All compounds were dissolved at 50 mg/mL in CHCl3 :CH3 OH (1:1) and […] of each compound was applied two times to the ear, at about a 2 minute interval or the period of time it took for the solvent to evaporate from the ear, immediately following arachidonic acid (AA). A control of AA alone was run. Ninety minutes later a 6 mm disk of each ear was removed and weighed.

[5] = system: 5-lipoxygenase; conditions: Sotomatsu et al. 1959; Inoue et al. 1986; cited from earlier work
[6] = system: E-selectin; assay: cancer cell adhesion to E-selectin (E-selectin chimera binding to fixed LS174T colon carcinoma cells); format: cell-based; conditions: lowest concentration from serial two-fold dilutions inhibiting by 50% or more, FIGS. 3 and 4
Method: The mixture is rotated briskly on a rotary platform at room temperature for about 30-60 minutes. Particulate matter is removed by centrifugation, and the soluble fraction is transferred onto 96-well microtiter plates containing glutaraldehyde fixed LS174T colon carcinoma cells. This cell line is known to adhere to E-selectin. After 60 minutes at 37° C., plates are washed and E-selectin chimera bound to cells is quantified by addition of pNPP substrate in 1M diethanolamine buffer containing 0.1 mg/ml MgCl2 at pH 9.8. Plates are developed in the dark and read at 405 nm. The IC50 values are calculated and are the lowest concentrations from serial two-fold dilutions (quadruplicate wells at each concentration) which inhibits cell binding by 50% or more relative to the control.
Experiments were conducted to determine the capacity of the invention compounds to interfere with the binding of cancer cells to E-selectin. The compounds are dissolved in dimethylformamide (DMF) prior to being assayed. […] After 60 minutes at 37° C., plates are washed and E-selectin chimera bound to cells is quantified by addition of pNPP substrate in 1M diethanolamine buffer containing 0.1 mg/ml MgCl2 at pH 9.8. Plates are developed in the dark and read at 405 nm. […]

Row | SMILES | ED50 against P-388 lymphocytic leukemia cells [1] [µg/mL] | inhibition of ornithine decarboxylase [2] | IC50 [3] [µM] | % Inhibition of Swelling ([4]; first printed value of three separate experiments) [%] | % Inhibition of Swelling ([4]; first printed value of three separate experiments, listed as Betulinic acid) [%] | % Inhibition of Swelling ([4]; second printed value of three separate experiments) [%] | % Inhibition of Swelling ([4]; third printed value of three separate experiments) [%] | inhibition of enzymes involved in leukotriene biosynthesis, including 5-lipoxygenase [5] | IC50 [6] [µM]
1 | C=C(C)[C@@H]1CC[C@]2(C(=O)OC)CC[C@]3(C)[C@H](CC[C@@H]4[C@@]5(C)CC[C@H](O)C(C)(C)[C@@H]5CC[C@]43C)[C@@H]12 [betulinic acid methyl ester] | 6.8 (≈ 14.4 µM) |  |  |  |  |  |  |  | 
2 | C=C(C)[C@@H]1CC[C@]2(C(=O)O)CC[C@]3(C)[C@H](CC[C@@H]4[C@@]5(C)CC[C@H](O)C(C)(C)[C@@H]5CC[C@]43C)[C@@H]12 [betulinic acid] |  | known inhibitor of ornithine decarboxylase | ~750 | ~0 | 0.0 | ~12.2 | ~25.9 | capacity to inhibit enzymes involved in leukotriene biosynthesis, including 5-lipoxygenase | 60
3 | C=C(C)[C@@H]1CC[C@]2(C(=O)O)CC[C@]3(C)[C@H](CC[C@@H]4[C@@]5(C)CC[C@H](OC(C)=O)C(C)(C)[C@@H]5CC[C@]43C)[C@@H]12 [betulinic acid 3-monoacetate] | 10.5 (≈ 21.1 µM) |  |  |  |  |  |  |  | 
